# From patent US7084261B2, “Pegylated T1249 polypeptide” (Hoffmann-La Roche Inc., priority 2002, dated 2006)
# Where two headings read alike, the source gives them in different places.
# Assays:
# HIV-1 = test system: HIV-1
# Source text: The number of stained nuclei can thus be interpreted as equal to the number of infectious virions in the challenge inoculum if there is only one round of infection prior to staining.
# [1] = Pharmacokinetics of T1249 in rats after a single subcutaneous or intravenous dose; assay type: in vivo; settings: both sexes, Sprague-Dawley, blood, rat; for half-life: read-out: T1/2terminal (converted)
# Description: Each treatment group, consisted of 9 Sprague-Dawley rats (Charles River Laboratories, Wilmington, Del.) per sex. Each member of the group received a single subcutaneous or intravenous dose of T1249 (batch 2 referenced in Example 9/Table 5). […]
# Blood samples were collected from test animals over a twelve hour time period from three rats per sex per group at each time point. The time points were 0.5, 1, 2, 4, 6, 8,10, and 12 hours after dose administration.
# The blood samples were analyzed using a T1249 PcAb ECLIA assay. T1249 PcAb ECLIA is a noncompetitive, two site immunoassay that utilizes two different preparations of rabbit PcAb specific for T1249. In this assay, T1249 determinations are preformed by first incubating the diluted test sample in a tube that also contains biotin-labeled antibody (preparation A) and ruthenium-labeled antibody (preparation B). In the next step, streptavidin-coated magnetic beads are added to the tube in order to capture the antibody-peptide-antibody immune complexes (sandwiches) that have formed. The mixture is then pumped through a flow-cell in the analyzer, after which an electrical current is applied to […] adjacent to the flow-cell. Light is generated through cyclical oxidation-reduction reactions between the ruthenium metal ions that are conjugated to the detector antibodies and tripropylamine ions that are present in excess in the assay buffer. This light energy is the measured end-point. A sample containing an appreciable amount of T1249 presents a higher signal compared to a sample containing little or no T1249.
smiles,measurement,setting,value
CC[C@H](C)[C@H](NC(=O)[C@H](CCC(N)=O)NC(=O)[C@H](C)NC(=O)[C@H](CCC(N)=O)NC(=O)[C@H](CCC(=O)O)NC(=O)[C@H](CC(C)C)NC(=O)[C@H](CC(C)C)NC(=O)[C@H](C)NC(=O)[C@@H](NC(=O)[C@@H](NC(=O)[C@H](CCCCN)NC(=O)[C@H](CCC(N)=O)NC(=O)[C@H](CCC(=O)O)NC(=O)[C@H](Cc1c[nH]c2ccccc12)NC(=O)[C@H](CCC(=O)O)NC(=O)[C@H](CCC(N)=O)NC(=O)[C@@H](N)Cc1c[nH]c2ccccc12)[C@@H](C)CC)[C@@H](C)O)C(=O)N[C@@H](CCC(N)=O)C(=O)N[C@@H](CCC(N)=O)C(=O)N[C@@H](CCC(=O)O)C(=O)N[C@@H](CCCCN)C(=O)N[C@@H](CC(N)=O)C(=O)N[C@@H](CCC(=O)O)C(=O)N[C@@H](Cc1ccc(O)cc1)C(=O)N[C@@H](CCC(=O)O)C(=O)N[C@@H](CC(C)C)C(=O)N[C@@H](CCC(N)=O)C(=O)N[C@@H](CCCCN)C(=O)N[C@@H](CC(C)C)C(=O)N[C@@H](CC(=O)O)C(=O)N[C@@H](CCCCN)C(=O)N[C@@H](Cc1c[nH]c2ccccc12)C(=O)N[C@@H](C)C(=O)N[C@@H](CO)C(=O)N[C@@H](CC(C)C)C(=O)N[C@@H](Cc1c[nH]c2ccccc12)C(=O)N[C@@H](CCC(=O)O)C(=O)N[C@@H](Cc1c[nH]c2ccccc12)C(=O)N[C@@H](Cc1ccccc1)C(N)=O [Example T1249],IC50,HIV-1; 50% reduction in infectious virus titer,0.003 µg/mL
same,IC90,HIV-1; 90% reduction in infectious titer,0.023 µg/mL
same,AUC(0-inf),[1]; 1.2 mg/kg (SC),27600 ng·h/mL
same,AUC(0-t),[1]; 1.2 mg/kg (SC),27000 ng·h/mL
same,Cmax,[1]; 1.2 mg/kg (SC),6370 ng/mL
same,Tmax,[1]; 1.2 mg/kg (SC),1.09 h
same,half-life,[1]; 1.2 mg/kg (SC),2.02 h
same,AUC(0-inf),[1]; 1.5 mg/kg (IV),47100 ng·h/mL
same,AUC(0-t),[1]; 1.5 mg/kg (IV),45600 ng·h/mL
same,Cmax,[1]; 1.5 mg/kg (IV),15700 ng/mL
same,half-life,[1]; 1.5 mg/kg (IV),2.46 h
same,AUC(0-inf),[1]; 5.0 mg/kg (IV),120000 ng·h/mL
same,AUC(0-t),[1]; 5.0 mg/kg (IV),118000 ng·h/mL
same,Cmax,[1]; 5.0 mg/kg (IV),46300 ng/mL
same,half-life,[1]; 5.0 mg/kg (IV),1.86 h
same,AUC(0-inf),[1]; 15 mg/kg (SC),110000 ng·h/mL
same,AUC(0-t),[1]; 15 mg/kg (SC),107000 ng·h/mL
same,Cmax,[1]; 15 mg/kg (SC),21500 ng/mL
same,Tmax,[1]; 15 mg/kg (SC),1.88 h
same,half-life,[1]; 15 mg/kg (SC),2 h
